# Key:
# [1] = Particle surface area (BET method); type: physicochemical; settings: precipitated or ground glibenclamide product
# [2] = Solubility of glibenclamide in water; type: physicochemical
# [3] = tested on: blood sugar; settings: cited from earlier work
particle surface area [1] [m^2 /g],Compound,also measured
10.3,"COc1ccc(Cl)cc1C(=O)NCCc1ccc(S(=O)(=O)NC(=O)NC2CCCCC2)cc1 [Example 5, glibenclamide]",–
5.2,"COc1ccc(Cl)cc1C(=O)NCCc1ccc(S(=O)(=O)NC(=O)NC2CCCCC2)cc1 [Example 6, glibenclamide]",–
7.8,"COc1ccc(Cl)cc1C(=O)NCCc1ccc(S(=O)(=O)NC(=O)NC2CCCCC2)cc1 [Example 7, glibenclamide]",–
5.8,"COc1ccc(Cl)cc1C(=O)NCCc1ccc(S(=O)(=O)NC(=O)NC2CCCCC2)cc1 [Example 8, glibenclamide]",–

# Second part, the compound before the results:
Compound,particle surface area [1] [m^2 /g],also measured
"COc1ccc(Cl)cc1C(=O)NCCc1ccc(S(=O)(=O)NC(=O)NC2CCCCC2)cc1 [Example 1, glibenclamide]",5.79,–
"COc1ccc(Cl)cc1C(=O)NCCc1ccc(S(=O)(=O)NC(=O)NC2CCCCC2)cc1 [Example 2, glibenclamide]",9.8,–
"COc1ccc(Cl)cc1C(=O)NCCc1ccc(S(=O)(=O)NC(=O)NC2CCCCC2)cc1 [Example 3, glibenclamide]",6.0,–
"COc1ccc(Cl)cc1C(=O)NCCc1ccc(S(=O)(=O)NC(=O)NC2CCCCC2)cc1 [Example 4, glibenclamide]",6.8,–
"COc1ccc(Cl)cc1C(=O)NCCc1ccc(S(=O)(=O)NC(=O)NC2CCCCC2)cc1 [glibenclamide, N-4-[2-(5-chloro-2-methoxybenzamido)-ethyl]-phenyl-sulfonyl-N'-cyclohexylurea]",–,"solubility in water, pH of minimum [2]: reaches a minimum at a pH of 4; blood sugar lowering action ([3]; among sulfonylurea derivatives): greatest hitherto known blood sugar lowering action; side effects ([3]; in vivo): lowest degree of side effects"

# From patent US4060634A (Boehringer Mannheim G.m.b.H., priority 1973, dated 1977)
